Reference: patent EP3243509A1, “OROBUCCAL ABSORPTION COMPOSITION FOR NEURO-PROTECTION” (priority 2016, dated 2017)

Legend:
multiple sclerosis (MS) = conditions: part intravenously, part per os; Hartstein and Ulett 1957; cited from earlier work
[1] = system: rat model with Alzheimer disease; conditions: Salkovic-Petrisic et al. 2014; cited from earlier work
[2] = system: open-angle acute primary glaucoma; test: Clinical Case Report 2; format: in vivo, patient; conditions: ophthalmic treatment for IOP, after 4 months of treatment

SMILES | symptoms of the disease (multiple sclerosis (MS)) | effect of the oral treatment (learning capacity and memory) [1] | field of vision and acuity [2]
O=C[C@H](O)[C@@H](O)[C@@H](O)[C@H](O)CO [D-galactose] | improved the symptoms of the disease | beneficial effect | –
CC(C)NCC(O)COc1ccc(CCOCC2CC2)cc1 (stereo not drawn) [beta-toxolol, betaxolol] | – | – | not improved
